# In patent publication US20180284095A1, “BIOMARKERS ASSOCIATED WITH LSD1 INHIBITORS AND USES THEREOF” (Oryzon Genomics, S.A., priority 2015, published 2018):
# Target: T1, Human recombinant monoamine oxidase MAO-A (Homo sapiens, UniProt P21397)
# T1 construct: purchased Sigma Aldrich
# T1 sequence (P21397 1-527): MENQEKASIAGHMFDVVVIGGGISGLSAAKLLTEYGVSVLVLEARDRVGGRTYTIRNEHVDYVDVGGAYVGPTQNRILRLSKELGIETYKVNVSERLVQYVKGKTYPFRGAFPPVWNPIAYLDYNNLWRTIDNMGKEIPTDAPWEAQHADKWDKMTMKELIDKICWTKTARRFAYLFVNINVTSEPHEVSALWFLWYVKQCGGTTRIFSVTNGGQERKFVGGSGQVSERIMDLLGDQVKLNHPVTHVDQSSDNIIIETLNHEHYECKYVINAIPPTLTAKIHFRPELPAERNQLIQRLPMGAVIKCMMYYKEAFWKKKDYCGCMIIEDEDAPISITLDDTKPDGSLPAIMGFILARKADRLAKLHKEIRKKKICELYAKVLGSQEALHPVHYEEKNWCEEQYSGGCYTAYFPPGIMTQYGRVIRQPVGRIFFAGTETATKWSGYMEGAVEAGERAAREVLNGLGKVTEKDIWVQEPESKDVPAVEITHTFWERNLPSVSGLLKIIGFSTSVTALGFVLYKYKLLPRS
# Test: MAO-A fluorescence-based kynuramine assay
# Assay type: biochemical
# Excerpt: LSD1 has a fair degree of structural similarity and amino acid identity/homology with the flavin-dependent amine oxidases monoamine oxidase A (MAO-A) and B (MAO-B). To determine the level of selectivity of a LSD1 inhibitor versus MAO-A and MAO-B, the inhibitory activity of a compound of interest against MAO-A and MAO-B can be tested using the method described below: Human recombinant monoamine oxidase proteins MAO-A and MAO-B were purchased from Sigma Aldrich.
# MAOs catalyze the oxidative deamination of primary, secondary and tertiary amines. In order to monitor MAO enzymatic activities and/or their inhibition rate by inhibitor(s) of interest, a fluorescence-based (inhibitor)-screening assay was set up. 3-(2-Aminophenyl)-3-oxopropanamine (kynuramine dihydrobromide, Sigma Aldrich), a non fluorescent compound was chosen as a substrate. Kynuramine is a non-specific substrate for both MAO-A and MAO-B activities. While undergoing oxidative deamination by MAO activities, kynuramine is converted into 4-hydroxyquinoline (4-HQ), a resulting fluorescent product.
# The monoamine oxidase activity was estimated by measuring the conversion of kynuramine into 4-hydroxyquinoline. Assays were conducted in 96-well black plates with clear bottom (Corning) in a final volume of 100 μL. The assay buffer was 100 mM HEPES, pH 7.5. Each experiment was performed in duplicate within the same experiment.
# Briefly, a fixed amount of MAO was incubated on ice for 15 minutes in the reaction buffer, in the absence and/or in the presence of at least eight 3-fold serial dilutions each. Clorgyline and Deprenyl (Sigma Aldrich) was used as a control for specific inhibition of MAO-A and MAO-B respectively.
# After leaving the enzyme(s) interacting with the inhibitor, KM of kynuramine was added to each reaction for MAO-B and MAO-A assay respectively, and the reaction was left for 1 hour at 37° C. in the dark. The oxidative deamination of the substrate was stopped by adding 50 μL of NaOH 2N. The conversion of kynuramine to 4-hydroxyquinoline, was monitored by fluorescence (excitation at 320 nm, emission at 360 nm) using a microplate reader (Infinite 200, Tecan). Arbitrary units were used to measure levels of fluorescence produced in the absence and/or in the presence of inhibitor.
# The maximum of oxidative deamination activity was obtained by measuring the amount of 4-hydroxyquinoline formed from kynuramine deamination in the absence of inhibitor and corrected for background fluorescence in the absence of MAO enzymes. The IC50 values of each inhibitor were calculated with GraphPad Prism Software.
row,IC50,Compound
1,2.3 µM,"NC(=O)CN[C@H]1C[C@@H]1c1ccc(OCc2ccccc2)cc1 (racemic) [Compound 3, 2-(((trans)-2-(4-(benzyloxy)phenyl)cyclopropyl)amino)acetamide]"
2,4.6 µM,"CN1CCN(C(=O)CN[C@H]2C[C@@H]2c2ccc(OCc3ccccc3)cc2)CC1 (racemic) [Compound 4, 2-(((trans)-2-(4-(benzyloxy)phenyl)cyclopropyl)amino)-1-(4-methylpiperazin-1-yl)ethan-1-one]"

# Continued, compound first:
row,Compound,IC50
1,"N[C@H]1CCN(CCN[C@H]2C[C@@H]2c2ccc(-c3cccc(C(F)(F)F)c3)cc2)C1 (racemic) [Compound 5, (S)-1-(2-(((trans)-2-(3′-(trifluoromethyl)-[1,1′-biphenyl]-4-yl)cyclopropyl)amino)ethyl)pyrrolidin-3-amine]",3.4 µM
2,"(+) 5-((((trans)-2-(4-(benzyloxy)phenyl)cyclopropyl)amino)methyl)-1,3,4-oxadiazol-2-amine [Compound 2]",3.8 µM
3,"(−) 5-((((trans)-2-(4-(benzyloxy)phenyl)cyclopropyl)amino)methyl)-1,3,4-oxadiazol-2-amine [Compound 1]",5.3 µM
